# Experiments:
# CMV (Ad169) = test: viral plaque reduction assay, CMV; assay type: cell-based, Cytomegalovirus
# RSV [1] = test: time of addition: effect on viral protein synthesis in infected Vero cells; assay type: cell-based
# Description: The time in the virus life-cycle when Example 1 exerts its effect was determined to increase understanding of the mechanism of action. This was accomplished by adding and removing the compound at various times relative to infection and assessing the effect on viral protein synthesis. Vero cells were infected on ice for 1 hour, unadsorbed virus was removed, and then the infected cells were incubated at 37°C for 18 hours (virus adsorption will occur on ice, but fusion will not proceed until the temperature is raised to 18°C or above). After the 18 hour incubation at 37°C (when the bulk of ongoing protein synthesis was directed by viral RNAs), ^35S-methionine was added for 2 hours, the cells were lysed, and the labeled proteins were analyzed on SDS-PAGE gels. The viral N, P, and M proteins were then evident. […] However, when the compound of Example 1 was added even after only 5 minutes incubation at 37°C, viral protein production was unimpeded. Therefore, the process inhibited was the fusion process or some closely succeeding step which is required for later viral gene expression.
# FLU = test: viral plaque reduction assay, influenza; assay type: cell-based; conditions: Pre
# RSV (A2) = test: viral yield reduction (growth inhibition) assay, RSV; assay type: cell-based, Respiratory Syncitial Virus
# Description: The compounds were tested for biological activity using viral yield reduction assays. Host cells (indicated as HF for human foreskin fibroblasts and as vero, the commonly used African green monkey cell line, in Tables 1 and 1a) were plated at 4 x 10^4 cells/well in cell growth medium with 2% fetal bovine serum or 2% calf serum in 96-well plates (0.1 ml/well) and incubated overnight. The compounds were added to individual wells to give final concentrations ranging from 50 to 0.1 µg/ml in two-fold concentration steps. After 1 hour, virus was added, and the incubation was continued for 4 days with RSV or CMV and for 2 days with HSV. At the end of the experiment, the amount of virus growth was quantitated and the yield reduction at various concentrations of compound was calculated. This allows estimation of the concentration of compound giving 50% reduction in virus growth (IC50).
# HSV1 (Patton) = test: viral plaque reduction assay, HSV1; assay type: cell-based, Herpes Simplex Virus; conditions: HSV1 (Patton), vero host cells
# RSV A2 = assay type: in vivo, cotton rats; conditions: cotton rats, summary of Table 3
# HSV2 = test: viral plaque reduction assay, HSV2; assay type: cell-based, herpes simplex virus; conditions: Pre
# RSV [2] = test: viral plaque reduction assay, RSV; assay type: cell-based, Respiratory Syncitial Virus
# HPIV3 = test: viral plaque reduction assay, HPIV3; assay type: cell-based, human parainfluenza virus type 3, strain Washington; conditions: HPIV3 WASH., VERO, Pre
substance,measurement,setting,value
"4,4'-Bis[4,6-di[3-aminophenyl-N,N-bis(2-carbamoyl-ethyl)sulfonylimino]-1,3,5-triazin-2-ylamino]-stilbene-2,2'-disulfonic acid, disodium salt [Example 1]",IC50µG/mL IN PLAQUE ASSAY CMV/ HF,"CMV (Ad169); CMV (Ad169), HF host cells",7 µg/mL
same,IC50 (µG/ml) viral plaque formation,"CMV (Ad169); HCMV Ad169, HF, Pre",15 µg/mL
same,viral protein synthesis,RSV [1]; 10 µg/ml added immediately after virus adsorption and before raising the incubation temperature to 37°C,fully prevented
same,viral protein production,RSV [1]; added after only 5 minutes incubation at 37°C,unimpeded
same,IC50 (µG/ml) viral plaque formation,"FLU; FLU A1/FM/1/47, MDCK",>50 µg/mL
same,IC50 (µG/ml) viral plaque formation,"FLU; FLU A2/HK/8/68, MDCK",>50 µg/mL
same,IC50 (µG/ml) viral plaque formation,"FLU; FLU A2/JPN/305/57, MDCK",>50 µg/mL
same,IC50 (µG/ml) viral plaque formation,"FLU; FLU A/Beij/32/92, MDCK",>20 µg/mL
same,IC50 (µG/ml) viral plaque formation,"FLU; FLU A/Texas/36/91, MDCK",5 µg/mL
same,IC50 (µG/ml) viral plaque formation,"FLU; FLU B/Pana/45/90, MDCK",>20 µg/mL
same,IC50 µG/mL IN GROWTH […]/ HF,RSV (A2); HF host cells,0.3 µg/mL
same,IC50 µG/mL IN GROWTH […]/ VERO,RSV (A2); vero host cells,0.5 µg/mL
same,IC50µG/mL IN PLAQUE ASSAY HSV/ VER O,HSV1 (Patton),8 µg/mL
same,inhibition of RSV in vivo (summary in words),RSV A2,inhibit RSV in vivo
same,IC50 (µG/ml) viral plaque formation,"HSV2; HSV2 12, VERO",>10 µg/mL
same,IC50 (µG/ml) viral plaque formation,"HSV2; HSV2 333, VERO",3 µg/mL
same,IC50 (µG/ml) viral plaque formation,"HSV2; HSV2 MS, VERO",5 µg/mL
same,IC50 (µG/ml) viral plaque formation,"RSV [2]; RSV 2B, VERO, Pre",0.1 µg/mL
same,IC50 (µG/ml) viral plaque formation,"RSV [2]; RSV 3A, VERO, Pre",0.5 µg/mL
same,IC50 (µG/ml) viral plaque formation,"RSV [2]; RSV 9320, VERO, Pre",0.2 µg/mL
same,IC50µG/mL IN PLAQUE ASSAY RSV/ VERO,"RSV [2]; RSV (A2), vero host cells",0.3 µg/mL
same,IC50 (µG/ml) viral plaque formation,"RSV [2]; RSV A2, HF, Post 2 hours",<3 µg/mL
same,IC50 (µG/ml) viral plaque formation,"RSV [2]; RSV A2, HF, Pre",0.4 µg/mL
same,IC50 (µG/ml) viral plaque formation,"RSV [2]; RSV A2, MDBK, Pre",0.4 µg/mL
same,IC50 (µG/ml) viral plaque formation,"RSV [2]; RSV A2, SKNSH, Pre",0.4 µg/mL
same,IC50 (µG/ml) viral plaque formation,"RSV [2]; RSV A2, VERO, Post 2 hours",0.3 µg/mL
same,IC50 (µG/ml) viral plaque formation,"RSV [2]; RSV A2, VERO, Post 24 hours",0.4 µg/mL
same,IC50 (µG/ml) viral plaque formation,"RSV [2]; RSV A2, VERO, Pre (pretreatment)",0.3 µg/mL
same,IC50 (µG/ml) viral plaque formation,"RSV [2]; RSV LONG, VERO, Pre",0.2 µg/mL
same,active against all RSV strains tested (plaque assays),RSV [2]; all RSV strains tested,0.1 to 0.7 µg/mL
same,IC50 (µG/ml) viral plaque formation,HPIV3,20 µg/mL

# From patent publication EP0795549A1, “Bis-aryloxy(amino)-triazinyl-oxy(amino)aryl derivatives, their preparation and their use as antiviral agents” (American Cyanamid Company, priority 1996, dated 1997)
